In PMC10056348, “Photocaged Histone Deacetylase Inhibitors as Prodrugs in Targeted Cancer Therapy” (Pharmaceuticals, 2023):

How the values were obtained:
[1] = system: acetyl-histone H3 in MV-3 cells; assay: Immunoblot of acetyl-histone H3 (marker of HDAC1-3 inhibition); type: cell-based; conditions: 24 h, 3.1 µM, after UV irradiation (365 nm, 10 min)
Description: MV-3 cells were seeded to cell culture flasks and cultured for 48 h. Aliquots of the DMSO stock solution (10 mM) designated for photolysis were irradiated for 10 min with the UV reactor (see Section 4.3). The cells were treated with the stock solutions, processed with or without irradiation, of the indicated concentration or vehicle (DMSO) for 24 h. Cell lysis was performed with Cell Extraction Buffer (10 mM Tris, pH 7.4, 100 mM NaCl, 1 mM EDTA, 1 mM EGTA, 1 mM NaF, 20 mM Na4P2O7, 2 mM Na3VO4, 1% Triton™ ×-100, 10% glycerol, 0.1% SDS, 0.5% deoxycholate; Catalog# FNN0011, Thermo Fisher Scientific Inc., Waltham, MA, USA) and addition of Halt Protease Inhibitor Cocktail (100×) (Catalog# 78429, Life Technologies GmbH Carlsbad, CA, USA) and phenylmethanesulfonyl fluoride (Catalog# 10837091001, Sigma-Aldrich, St. Louis, MO, USA) according to manufacturer instructions. Protein content was determined by Pierce™ BCA Protein Assay Kit (Catalog# 23225, Thermo Fisher Scientific Inc., Waltham, MA, USA) according to manufacturer guidelines. Samples were denatured by Laemmli 2× Concentrate (Catalog# S3401-10VL, Sigma-Aldrich, St. Louis, MO, USA), and Precision Plus Protein Unstained Standard was used as molecular weight marker (Catalog# 1610363, Bio-Rad, Hercules, CA, USA). […]

[2] = Photo-uncaging efficiency (HPLC after irradiation at 365 nm); type: physicochemical; conditions: 10 min
Description: Photolysis (photo-uncaging) of photocaged HDACi prodrugs was performed at room temperature using a UVP CL-1000 Crosslinker (Analytik Jena GmbH, Jena, Germany) equipped with five UV-A tubes (F8T5/BL368; λmax = 365 nm; Analytik Jena GmbH, Jena, Germany). Hereafter, this entire experimental set-up will be referred to as the “UV reactor”.
For the photo-uncaging efficiency testing, 10 µL of a 1.0 mM DMSO solution of the respective compound was irradiated for 10 min using the UV reactor described above. Subsequently, 90 µL acetonitrile was added, and the samples were analyzed via HPLC. The amount of photo-cleaved HDACi was determined by comparison with a five-point calibration curve of the respective parent inhibitor, using HPLC/UV detection at an appropriate wavelength (area under the curve; area mAu*min).
2. Photouncaging Experiments
Photolysis (photouncaging) of photocaged HDACi prodrugs was performed at room temperature using an UVP CL-1000 Crosslinker (Analytik Jena GmbH, Jena, Germany) equipped with five UV-A tubes (F8T5/BL368; λmax = 365 nm; Analytik Jena GmbH, Jena, Germany). Hereafter, this entire experimental set-up will be referred to as the "UV-reactor".
For the deprotection experiments 10 µL of a 1.0 mM DMSO-solution of the respective compound were irradiated for 10 min using the UV-reactor described above. Subsequently, 90 µL acetonitrile were added and the samples were analyzed via HPLC. The amount of photo-cleaved HDACi was determined by comparison with a five-point calibration curve of the respective parent inhibitor using HPLC/UV detection at an appropriate wavelength (area under the curve; area mAu*min).
Figure S5. Calibration curve of DDK-137 (I).

## COc1cc(CONC(=O)c2ccc(CN(CC(=O)NCc3ccccc3)C(=O)c3ccc(N(C)C)cc3)cc2)c([N+](=O)[O-])cc1OC [pc-I, N-[2-(Benzylamino)-2-oxoethyl]-N-(4-{[(4,5-dimethoxy-2-nitrobenzyl)oxy]carbamoyl}benzyl)-4-(dimethylamino)benzamide]
[1]
  level of acetyl-histone H3: higher amount of acetyl-histone-H3
[2]; DMSO, HPLC with calibration curve
  yield of photo-released parent inhibitor: 82%
[2]; initial concentration 100 µM
  concentration of photo-released parent inhibitor after irradiation: 81.5 µM
